Test results taken from patent US20070037253A1, “Methods and compositions for treatment of arthritis and cancer” (priority 2003, published 2007).
Values joined by “and” are separate entries in the source; they are usually repeats but may differ in a detail not shown here. Equal entries are not always repeated. Where a SMILES comes first, the peptide text is derived from it.

Key:
Type in all cases: biochemical
MMP-2 = target: T1, MMP-2 (Homo sapiens, UniProt P08253); assay: Gelatin zymography of human synovial fluid pre-incubated with inhibitors; details: 5 or 10 μM, pre-incubated 37° C. 1 h
T1 construct: from tissue; host or cells: human synovial fluid
T1 sequence (P08253 110-660): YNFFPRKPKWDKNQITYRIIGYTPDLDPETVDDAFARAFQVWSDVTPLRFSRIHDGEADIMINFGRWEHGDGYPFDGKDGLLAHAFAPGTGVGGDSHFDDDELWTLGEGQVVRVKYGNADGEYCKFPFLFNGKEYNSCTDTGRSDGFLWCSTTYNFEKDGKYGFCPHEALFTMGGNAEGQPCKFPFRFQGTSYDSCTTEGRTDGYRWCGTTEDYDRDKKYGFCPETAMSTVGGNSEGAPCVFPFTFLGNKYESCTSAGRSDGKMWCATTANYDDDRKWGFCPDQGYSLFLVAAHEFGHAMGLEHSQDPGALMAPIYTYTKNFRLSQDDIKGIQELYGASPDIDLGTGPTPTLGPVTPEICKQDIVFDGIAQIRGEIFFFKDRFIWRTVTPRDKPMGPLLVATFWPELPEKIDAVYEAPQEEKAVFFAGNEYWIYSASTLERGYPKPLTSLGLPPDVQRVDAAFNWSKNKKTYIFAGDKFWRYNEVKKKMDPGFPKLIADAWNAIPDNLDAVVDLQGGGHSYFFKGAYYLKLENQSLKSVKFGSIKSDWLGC
Protocol: (A) Samples containing human synovial fluid (5 μL) and 5 or 10 μM of peptides were pre-incubated at 37° C. for 1 h in Tris-HCl buffer prior to electrophoresis on 10% SDS-PAGE gel containing gelatin (0.1%). […] (B) The mean density (OD/mm2)±SD (n=3), representing MMP-2 activity, obtained by scanning the zymograms using the GS-710 calibrated imaging densitometer (Bio Rad, USA).
Gelatin zymography: human synovial fluid, purified human recombinant MMP-2 and -9 or APMA-activated concentrated culture supernatant samples (10 μL) was mixed (1:1) with Laemmli sample buffer, loaded on 4% acrylamide stacking gel and electrophoresed (120 V) at 4° C. on a 10% acrylamide-resolving minigel containing 0.1% gelatin. After electrophoresis for 1 h, the gels were soaked in 2.5% Triton X-100 on a shaker for 1 h, changing the solution after 30 min, to eliminate SDS. After overnight incubation in zymogen activation buffer [50 mM Tris-HCl, pH 7.5, containing 10 mM CaCl2 and 5 mM ZnCl2] at 37° C., the gels were rinsed in distilled water, and stained for 3 hr with […], after which clear bands of digested gelatin were clearly visible. The gels were briefly rinsed in distilled water and scanned by the Bio-Rad GS-710 Calibrated Imaging Densitometer.

collagenase I (MMP-1) = assay: Collagenase activity assay, collagen thin film (collagen type II substrate); details: for Collagenase (% Inhibition): collagen thin film, collagen type II, peptide concentration not given
Protocol: Collagenase activity was assayed by collagen thin film method using collagen type II as substrate. IC50 values were graphically determined from the inhibition curves, constructed on the basis of the in vitro results of collagenase assays. Results are the mean±SD of 3 separate experiments done in triplicates. (•), P-NT.II; (□), PIP [59-67] dimer; (Δ), PIP [59-67} monomer; (∇), LY 315920.
Collagenase activity assay: Using collagen thin film as the substrate, a quantitative method was established to measure the enzymatic activity of the MMPs (principally collagenase). Collagen type II (Sigma) solution (4 μL, 3 mg/mL in 0.012 N HCl) was added to each well of 96-well plates and precipitated by slowly increasing the pH with 4 μL of H2O and 8 μL of 0.012 N NaOH. The plate was dried at 23° C. for 24 hr, washed with H2O, and dried again at 23° C., resulting in a thin film containing 12 μg of collagen that was tightly bound to the bottom of the wells. Enzymatic reactions of the collagenase I (with and without peptide inhibitors) against the collagen films were carried out in quadruplicate at 24° C. for 16 h. The digested portion of the film was washed away, while the undigested portion was fixed for 3 h with 0.1% Coomassie brilliant blue R in 10% acetic acid and 45% methanol, and the wells washed and dried.

[1] = target: T2, purified human synovial sPLA2 (human Type IIA sPLA2) (Homo sapiens, UniProt P14555); assay: sPLA2 inhibition, 3H-arachidonate-labelled E. coli membrane assay; details: fixed peptide concentration (5 μM); 3H-labelled E. coli membrane assay; read-out: % Inhibition (mean ± SD)
T2 construct: purchased Cayman Chemicals, USA
T2 sequence (P14555 21-144): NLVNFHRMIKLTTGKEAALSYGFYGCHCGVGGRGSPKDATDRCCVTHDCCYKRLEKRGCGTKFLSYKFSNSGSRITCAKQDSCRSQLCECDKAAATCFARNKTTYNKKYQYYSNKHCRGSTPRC
Protocol: In brief, [^3H] arachidonate-labeled E. coli membranes (0.005 mCi/mL; 5.8 μCi/μmol, NEN) were used as substrate, and 100 mM Tris-HCl—25 mM CaCl2, pH 7.5 solution as an assay buffer. The reaction mixture contained 20 μL of substrate, 0.85 pmole of purified human synovial sPLA2 (human Type IIA sPLA2, Cayman Chemicals, USA), and an increasing concentrations of the family of synthetic peptides derived from the sequence of PIP. The final volume of the reaction mixture was adjusted to 250 μL with an assay buffer. After incubation of the mixture (37° C., 1 h) and termination of the reaction with 750 μL of chilled PBS containing 1% BSA, microfuge tubes containing the samples were centrifuged (10,000 g at 4° C. for 15 min), and 500 μL aliquots of the supernatant taken to measure the amount of [^3H]-labeled arachidonate released from the E. coli membrane using liquid scintillation counting (Multipurpose Scintillation Counter LS 6500; Beckman, USA). As controls, sPLA2 was pre-incubated with the assay buffer alone. All samples, including controls, were performed in triplicate and plotted as the percentage inhibition relative to negative controls.
A sigmoid dose response curve was generated to allow calculation of the IC50 values. All samples were performed in triplicate. Results were analyzed by nonlinear regression with GraphPad Prism (version 2.01) and expressed as the percentage of inhibition relative to control values.

Row | Structure (SMILES) | MMP-2 gelatinase activity (zymogram densitometry) vs control (MMP-2) | IC50 (collagenase I (MMP-1); collagen thin film method, FIG. 2, read-out: IC50 (mean±SD), collagenase I (MMP-1)) [µM] | Collagenase (% Inhibition) (collagenase I (MMP-1)) | inhibition at 5 µM [1] [%]
1 | CC[C@H](C)[C@H](NC(=O)[C@H](Cc1ccc(O)cc1)NC(=O)[C@@H](NC(=O)CNC(=O)[C@H](CC(=O)O)NC(=O)[C@H](Cc1c[nH]c2ccccc12)NC(=O)[C@@H](NC(=O)[C@H](Cc1c[nH]cn1)NC(=O)[C@@H](NC(=O)[C@H](CC(=O)O)NC(=O)[C@@H](NC(=O)[C@H](CCCNC(=N)N)NC(=O)CNC(=O)[C@@H](N)CC(C)C)C(C)C)[C@@H](C)CC)C(C)C)C(C)C)C(=O)N[C@@H](CCCNC(=N)N)C(=O)NCC(=O)N[C@@H](CCCNC(=N)N)C(=O)O [P-NT.II] (H-LGRVDIHVWDGVYIRGR-OH; N-terminus and C-terminus assumed) | did not show any significant difference from the control | 8.43 ± 1.17 | 64.2 ± 5.6% and 64.2 ± 5.5% | –
2 | CC[C@H](C)[C@H](NC(=O)[C@H](CC(=O)O)NC(=O)[C@@H](N)C(C)C)C(=O)N[C@@H](Cc1c[nH]cn1)C(=O)N[C@H](C(=O)N[C@@H](Cc1c[nH]c2ccccc12)C(=O)N[C@@H](CC(=O)O)C(=O)NCC(=O)N[C@H](C(=O)O)C(C)C)C(C)C [PIP [59-67] monomer] (H-VDIHVWDGV-OH; N-terminus and C-terminus assumed) | did not show any significant difference from the control | – | 34.2 ± 4.7% | 56.4 ± 3.21
